Data as given in patent US12662479B2 (Foghorn Therapeutics Inc., priority 2020, dated 2026).

Experiments:
HiBit-BRM fusion protein = molecular target: T1, HiBit-BRM fusion protein (Homo sapiens, UniProt P51531); assay: HiBiT-BRM cell-based degradation assay (Nano-Glo HiBiT Lytic Detection, 24 h); details: HeLa cells expressing HiBiT-BRM; for DC50: read-out: BRM HiBit Degradation IC50; for BRM HiBit Degradation Maximum measured: top dose 30 μM
T1 construct: expressed in transfected cells
Procedure, shortened: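 Residual HiBiT-BRM in a stable HeLa line was measured by Nano-Glo lytic luminescence after 24 h compound exposure (top final dose 30 μM, 3-fold, 10 points, duplicate). Values are % degradation, scaled between DMSO-treated cells and cells given 2 μM of a known BRM/BRG1 degrader.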

[1] = molecular target: T2, HiBit-BRG1 fusion protein (Homo sapiens, UniProt P51532); assay: HiBiT-BRG1 cell-based degradation assay (Nano-Glo HiBiT Lytic Detection, 24 h); details: HeLa cells expressing HiBit-BRG1 and LgBit; for DC50: read-out: BRG1 HiBit Degradation IC50; for Dmax: HeLa, top dose 30 μM, read-out: BRG1 HiBit Degradation Maximum measured
T2 construct: expressed in transfected cells
Procedure, shortened: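 Degradation is scaled from DMSO-treated cells (0%) to cells given 2 μM of a known BRM/BRG1 degrader (100%). HeLa cells stably carrying HiBiT-BRG1 plus LgBiT (5000/well) were lysed with Nano-Glo HiBiT detection reagent, shaken 10 min at RT, and luminescence read.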

T2 sequence (P51532 whole entry, the tested form may be a part): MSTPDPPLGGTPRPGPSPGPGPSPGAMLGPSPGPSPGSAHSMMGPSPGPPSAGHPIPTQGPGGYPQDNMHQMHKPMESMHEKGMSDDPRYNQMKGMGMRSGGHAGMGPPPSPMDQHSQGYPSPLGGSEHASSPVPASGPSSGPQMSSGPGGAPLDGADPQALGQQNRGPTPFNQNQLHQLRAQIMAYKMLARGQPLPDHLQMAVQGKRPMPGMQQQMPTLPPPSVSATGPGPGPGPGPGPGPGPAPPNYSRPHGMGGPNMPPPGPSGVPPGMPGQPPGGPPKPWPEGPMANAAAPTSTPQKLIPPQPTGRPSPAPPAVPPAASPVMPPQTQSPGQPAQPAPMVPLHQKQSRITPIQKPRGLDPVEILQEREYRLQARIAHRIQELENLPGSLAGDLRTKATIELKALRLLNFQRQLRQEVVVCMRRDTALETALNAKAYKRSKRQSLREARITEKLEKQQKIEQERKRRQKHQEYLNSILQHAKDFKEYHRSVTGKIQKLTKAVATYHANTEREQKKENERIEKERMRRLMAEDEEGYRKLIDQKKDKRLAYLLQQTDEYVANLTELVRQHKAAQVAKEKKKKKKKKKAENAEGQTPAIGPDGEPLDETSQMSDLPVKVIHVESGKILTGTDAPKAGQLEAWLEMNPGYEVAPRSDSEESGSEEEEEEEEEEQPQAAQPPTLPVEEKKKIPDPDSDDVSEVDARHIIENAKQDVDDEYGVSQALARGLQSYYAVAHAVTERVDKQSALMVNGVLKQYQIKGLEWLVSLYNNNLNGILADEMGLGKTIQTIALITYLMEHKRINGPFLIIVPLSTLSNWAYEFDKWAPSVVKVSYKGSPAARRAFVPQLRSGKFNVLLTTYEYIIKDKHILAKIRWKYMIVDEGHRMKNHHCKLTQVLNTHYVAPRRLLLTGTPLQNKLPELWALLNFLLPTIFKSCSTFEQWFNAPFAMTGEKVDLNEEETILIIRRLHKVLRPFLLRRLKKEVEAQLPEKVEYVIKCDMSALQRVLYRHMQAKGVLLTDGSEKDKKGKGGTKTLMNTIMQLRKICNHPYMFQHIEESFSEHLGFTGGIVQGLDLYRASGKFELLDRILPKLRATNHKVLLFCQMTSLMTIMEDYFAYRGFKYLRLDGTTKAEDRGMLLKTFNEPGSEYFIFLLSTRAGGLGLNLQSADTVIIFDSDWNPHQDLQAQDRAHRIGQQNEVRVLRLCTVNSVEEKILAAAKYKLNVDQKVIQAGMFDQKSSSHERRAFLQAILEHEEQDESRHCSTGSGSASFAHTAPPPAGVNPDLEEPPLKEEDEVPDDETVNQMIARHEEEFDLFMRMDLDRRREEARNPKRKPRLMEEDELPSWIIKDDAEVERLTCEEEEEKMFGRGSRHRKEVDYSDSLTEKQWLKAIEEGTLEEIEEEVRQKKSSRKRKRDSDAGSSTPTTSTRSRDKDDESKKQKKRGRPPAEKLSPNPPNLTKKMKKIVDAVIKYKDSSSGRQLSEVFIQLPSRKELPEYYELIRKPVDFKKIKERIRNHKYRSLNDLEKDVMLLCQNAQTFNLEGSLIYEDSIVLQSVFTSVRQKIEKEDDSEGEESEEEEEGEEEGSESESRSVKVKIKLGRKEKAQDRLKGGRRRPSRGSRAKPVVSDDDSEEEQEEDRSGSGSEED
T1 sequence (P51531 whole entry, the tested form may be a part): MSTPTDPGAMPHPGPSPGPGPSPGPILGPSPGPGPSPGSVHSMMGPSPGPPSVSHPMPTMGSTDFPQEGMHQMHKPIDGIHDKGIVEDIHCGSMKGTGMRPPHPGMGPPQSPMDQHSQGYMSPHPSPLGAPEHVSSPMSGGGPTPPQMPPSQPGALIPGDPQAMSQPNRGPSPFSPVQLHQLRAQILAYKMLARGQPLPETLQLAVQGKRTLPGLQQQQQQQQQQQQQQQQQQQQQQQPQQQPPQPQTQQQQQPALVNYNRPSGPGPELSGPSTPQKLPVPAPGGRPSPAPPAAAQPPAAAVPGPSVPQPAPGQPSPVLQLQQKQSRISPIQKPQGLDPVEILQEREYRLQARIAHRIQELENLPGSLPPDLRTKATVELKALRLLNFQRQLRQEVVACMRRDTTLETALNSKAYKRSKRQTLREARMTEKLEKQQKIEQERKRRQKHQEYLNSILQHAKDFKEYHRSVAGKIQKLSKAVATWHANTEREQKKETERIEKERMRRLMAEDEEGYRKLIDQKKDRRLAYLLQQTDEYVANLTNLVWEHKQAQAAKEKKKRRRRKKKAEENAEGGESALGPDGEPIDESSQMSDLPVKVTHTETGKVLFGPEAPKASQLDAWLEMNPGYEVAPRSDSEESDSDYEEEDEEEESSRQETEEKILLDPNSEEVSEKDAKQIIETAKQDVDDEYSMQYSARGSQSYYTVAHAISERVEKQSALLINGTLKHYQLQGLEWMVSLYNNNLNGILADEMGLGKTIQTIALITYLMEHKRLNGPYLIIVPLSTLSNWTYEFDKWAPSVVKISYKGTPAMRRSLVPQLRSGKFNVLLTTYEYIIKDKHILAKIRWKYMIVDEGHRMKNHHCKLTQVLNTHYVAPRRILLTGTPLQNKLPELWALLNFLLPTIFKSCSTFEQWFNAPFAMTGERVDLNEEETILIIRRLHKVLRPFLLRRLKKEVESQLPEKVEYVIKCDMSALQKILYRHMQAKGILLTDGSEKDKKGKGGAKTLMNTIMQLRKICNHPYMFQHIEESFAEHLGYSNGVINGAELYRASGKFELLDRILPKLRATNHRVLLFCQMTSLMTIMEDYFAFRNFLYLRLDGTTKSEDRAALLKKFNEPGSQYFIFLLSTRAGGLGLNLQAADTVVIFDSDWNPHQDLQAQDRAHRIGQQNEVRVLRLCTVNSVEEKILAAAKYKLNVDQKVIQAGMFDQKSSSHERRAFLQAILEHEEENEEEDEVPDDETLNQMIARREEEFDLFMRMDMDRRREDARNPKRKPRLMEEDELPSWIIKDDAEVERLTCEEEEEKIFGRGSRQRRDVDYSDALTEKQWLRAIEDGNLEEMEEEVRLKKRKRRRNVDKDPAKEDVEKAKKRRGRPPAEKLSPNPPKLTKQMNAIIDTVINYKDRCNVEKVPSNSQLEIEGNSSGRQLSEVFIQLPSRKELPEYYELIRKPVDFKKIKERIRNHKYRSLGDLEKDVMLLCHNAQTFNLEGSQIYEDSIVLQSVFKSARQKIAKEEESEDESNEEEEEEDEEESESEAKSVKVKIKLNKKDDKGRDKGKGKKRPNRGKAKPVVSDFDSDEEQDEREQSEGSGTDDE

Row | Compound | DC50 (HiBit-BRM fusion protein) [µM] | BRM HiBit Degradation Maximum measured (HiBit-BRM fusion protein) | DC50 [1] [µM] | Dmax [1] [%]
1 | Cc1ncsc1-c1ccc(CNC(=O)[C@@H]2C[C@@H](O)CN2C(=O)[C@@H](NC(=O)CCCCCCCNC(=O)CN(C)c2cc(-c3cccc(-c4csc(NC(=O)CNC(=O)c5ccn(S(C)(=O)=O)c5)n4)c3)ccn2)C(C)(C)C)cc1 [Compound 88] | < 0.1 | B (‘B’ = Maximum degradation ≥50% and ≤75%) | < 0.1 | 50 to 75
2 | Cc1ncsc1-c1ccc(CNC(=O)[C@@H]2CC(O)CN2C(=O)[C@@H](NC(=O)COCCOCCOCCNC(=O)CN(C)c2cc(-c3cccc(-c4csc(NC(=O)CNC(=O)c5ccn(S(C)(=O)=O)c5)n4)c3)ccn2)C(C)(C)C)cc1 (some centres unmarked) [Compound 89] | > 10 | C (‘C’ = Maximum degradation <50%) | > 10 | < 50
3 | Cc1c(C(=O)NCC(=O)Nc2nc(-c3cccc(-c4ccnc(N(C)CC(=O)NCCOCCOCCNc5cccc6c5C(=O)N(C5CCC(=O)NC5=O)C6=O)c4)c3)cs2)cn(S(=O)(=O)C(C)C)c1C (centres unmarked) [Compound 90, N-[2-[[4-[3-[2-[[2-[2-[2-[2-[[2-(2,6-dioxo-3-piperidyl)-1,3-dioxo-isoindolin-4-yl]amino]ethoxy]ethoxy]ethylamino]-2-oxo-ethyl]-methyl-amino]-4-pyridyl]phenyl]thiazol-2-yl]amino]-2-oxo-ethyl]-1-isopropylsulfonyl-4,5-dimethyl-pyrrole-3-carboxamide] | > 10 | C (‘C’ = Maximum degradation <50%) | > 10 | < 50
4 | Cc1c(C(=O)NCC(=O)Nc2nc(-c3cccc(-c4ccnc(N(C)CC(=O)NCCCCCNc5cccc6c5C(=O)N(C5CCC(=O)NC5=O)C6=O)c4)c3)cs2)cn(S(=O)(=O)C(C)C)c1C (centres unmarked) [Compound 91, N-[2-[[4-[3-[2-[[2-[5-[[2-(2,6-dioxo-3-piperidyl)-1,3-dioxo-isoindolin-4-yl]amino]pentylamino]-2-oxo-ethyl]-methyl-amino]-4-pyridyl]phenyl]thiazol-2-yl]amino]-2-oxo-ethyl]-1-isopropylsulfonyl-4,5-dimethyl-pyrrole-3-carboxamide] | > 10 | C (‘C’ = Maximum degradation <50%) | > 10 | < 50
5 | CN(CC(=O)NCCCCCCCCNc1ccc2c(c1)C(=O)N(C1CCC(=O)NC1=O)C2=O)c1cc(-c2cccc(-c3csc(NC(=O)CNC(=O)c4ccn(S(C)(=O)=O)c4)n3)c2)ccn1 (centres unmarked) [Compound 92] | > 10 | C (‘C’ = Maximum degradation <50%) | > 10 | < 50
6 | CN(CC(=O)NCCOCCOCCNc1ccc2c(c1)C(=O)N(C1CCC(=O)NC1=O)C2=O)c1cc(-c2cccc(-c3csc(NC(=O)CNC(=O)c4ccn(S(C)(=O)=O)c4)n3)c2)ccn1 (centres unmarked) [Compound 93] | > 10 | C (‘C’ = Maximum degradation <50%) | > 10 | < 50
7 | Cc1ncsc1-c1ccc(CNC(=O)[C@@H]2C[C@@H](O)CN2C(=O)[C@@H](NC(=O)COCCOCCNC(=O)CN(C)c2cc(-c3cccc(-c4csc(NC(=O)CNC(=O)c5ccn(S(C)(=O)=O)c5)n4)c3)ccn2)C(C)(C)C)cc1 [Compound 94, N-(2-((4-(3-(2-(((S)-13-((2S,4R)-4-hydroxy-2-((4-(4-methylthiazol-5-yl)benzyl)carbamoyl)pyrrolidine-1-carbonyl)-14,14-dimethyl-2,11-dioxo-6,9-dioxa-3,12-diazapentadecyl)(methyl)amino)-pyridin-4-yl)phenyl)thiazol-2-yl)amino)-2-oxoethyl)-1-(methylsulfonyl)-1H-pyrrole-3-carboxamide] | > 10 | C (‘C’ = Maximum degradation <50%) | > 10 | < 50
8 | CN(CCNC(=O)C1(c2cc(-c3cccc(-c4csc(NC(=O)CNC(=O)c5ccn(S(C)(=O)=O)c5)n4)c3)ccn2)CC1)CCNc1cccc2c1C(=O)N(C1CCC(=O)NC1=O)C2=O (centres unmarked) [Compound 97, N-[2-[[4-[3-[2-[1-[2-[2-[[2-(2,6-dioxo-3-piperidyl)-1,3-dioxoisoindolin-4-yl]amino]ethyl-methyl-amino]ethylcarbamoyl]cyclopropyl]-4-pyridyl]phenyl]thiazol-2-yl]amino]-2-oxo-ethyl]-1-methylsulfonyl-pyrrole-3-carboxamide] | > 10 | C (‘C’ = Maximum degradation <50%) | > 10 | < 50
9 | CS(=O)(=O)n1ccc(C(=O)NCC(=O)Nc2nc(-c3cccc(-c4ccnc(C5(C(=O)NCCCCS(=O)(=O)CCCNc6cccc7c6C(=O)N(C6CCC(=O)NC6=O)C7=O)CC5)c4)c3)cs2)c1 (centres unmarked) [Compound 103, N-(2-((4-(3-(2-(1-((4-((3-((2-(2,6-dioxopiperidin-3-yl)-1,3-dioxoisoindolin-4-yl)amino)propyl)sulfonyl)butyl)carbamoyl)-cyclopropyl)pyridin-4-yl)phenyl)thiazol-2-yl)amino)-2-oxoethyl)-1-(methylsulfonyl)-1H-pyrrole-3-carboxamide] | 0.1 to 1 | B (‘B’ = Maximum degradation ≥50% and ≤75%) | 0.1 to 1 | > 75

Other lines, results leading:

Row | DC50 (HiBit-BRM fusion protein) [µM] | BRM HiBit Degradation Maximum measured (HiBit-BRM fusion protein) | DC50 [1] [µM] | Dmax [1] [%] | Compound
10 | < 0.1 | A (‘A’ = Maximum degradation >75%) | < 0.1 | > 75 | Cc1ncsc1-c1ccc(CNC(=O)[C@@H]2C[C@@H](O)CN2C(=O)[C@@H](NC(=O)CCCCCCCCCNC(=O)C2(c3cc(-c4cccc(-c5csc(NC(=O)CNC(=O)c6ccn(S(C)(=O)=O)c6)n5)c4)ccn3)CC2)C(C)(C)C)cc1 [Compound 98, N-(2-((4-(3-(2-(1-((10-(((S)-1-((2S,4R)-4-hydroxy-2-((4-(4-methylthiazol-5-yl)benzyl)carbamoyl)pyrrolidin-1-yl)-3,3-dimethyl-1-oxobutan-2-yl)amino)-10-oxodecyl)carbamoyl)cyclopropyl)-pyridin-4-yl)phenyl)thiazol-2-yl)amino)-2-oxoethyl)-1-(methylsulfonyl)-1H-pyrrole-3-carboxamide]
11 | < 0.1 | A (‘A’ = Maximum degradation >75%) | < 0.1 | > 75 | Cc1ncsc1-c1ccc(CNC(=O)[C@@H]2C[C@@H](O)CN2C(=O)[C@@H](NC(=O)CCCCCCCNC(=O)C2(c3cc(-c4cccc(-c5csc(NC(=O)CNC(=O)c6ccn(S(C)(=O)=O)c6)n5)c4)ccn3)CC2)C(C)(C)C)cc1 [Compound 99, N-(2-((4-(3-(2-(1-((8-(((S)-1-((2S,4R)-4-hydroxy-2-((4-(4-methylthiazol-5-yl)benzyl)carbamoyl)pyrrolidin-1-yl)-3,3-dimethyl-1-oxobutan-2-yl)amino)-8-oxooctyl)carbamoyl)cyclopropyl)-pyridin-4-yl)phenyl)thiazol-2-yl)amino)-2-oxoethyl)-1-(methylsulfonyl)-1H-pyrrole-3-carboxamide]
12 | 0.1 to 1 | A (‘A’ = Maximum degradation >75%) | < 0.1 | > 75 | Cc1ncsc1-c1ccc(CNC(=O)[C@@H]2C[C@@H](O)CN2C(=O)[C@@H](NC(=O)CCCCCNC(=O)C2(c3cc(-c4cccc(-c5csc(NC(=O)CNC(=O)c6ccn(S(C)(=O)=O)c6)n5)c4)ccn3)CC2)C(C)(C)C)cc1 [Compound 100, N-(2-((4-(3-(2-(1-((6-(((S)-1-((2S,4R)-4-hydroxy-2-((4-(4-methylthiazol-5-yl)benzyl)carbamoyl)pyrrolidin-1-yl)-3,3-dimethyl-1-oxobutan-2-yl)amino)-6-oxohexyl)carbamoyl)cyclopropyl)-pyridin-4-yl)phenyl)thiazol-2-yl)amino)-2-oxoethyl)-1-(methylsulfonyl)-1H-pyrrole-3-carboxamide]
13 | > 10 | C (‘C’ = Maximum degradation <50%) | > 10 | < 50 | CS(=O)(=O)n1ccc(C(=O)NCC(=O)Nc2nc(-c3cccc(-c4ccnc(C5(C(=O)NCCOCCOCCNc6ccc7c(c6)C(=O)N(C6CCC(=O)NC6=O)C7=O)CC5)c4)c3)cs2)c1 (centres unmarked) [Compound 101, N-[2-[[4-[3-[2-[1-[2-[2-[2-[[2-(2,6-dioxo-3-piperidyl)-1,3-dioxo-isoindolin-5-yl]amino]ethoxy]ethoxy]ethylcarbamoyl]-cyclopropyl]-4-pyridyl]phenyl]thiazol-2-yl]amino]-2-oxo-ethyl]-1-methylsulfonylpyrrole-3-carboxamide]
14 | > 10 | C (‘C’ = Maximum degradation <50%) | 0.1 to 1 | 50 to 75 | CS(=O)(=O)n1ccc(C(=O)NCC(=O)Nc2nc(-c3cccc(-c4ccnc(C5(C(=O)NCCS(=O)(=O)CCNc6cccc7c6C(=O)N(C6CCC(=O)NC6=O)C7=O)CC5)c4)c3)cs2)c1 (centres unmarked) [Compound 102, N-[2-[[4-[3-[2-[1-[2-[2-[[2-(2,6-dioxo-3-piperidyl)-1,3-dioxo-isoindolin-4-yl]amino]ethylsulfonyl]ethylcarbamoyl]-cyclopropyl]-4-pyridyl]phenyl]thiazol-2-yl]amino]-2-oxo-ethyl]-1-methylsulfonylpyrrole-3-carboxamide]
